Where two headings read alike, the source gives them in different places. Ends that are not written are not given here. Peptide text beside a SMILES is read from it. * marks the point of attachment. RhodamineB = CCN(CC)c1ccc2c(-c3ccccc3C(=O)*)c3ccc(=[N+](CC)CC)cc-3oc2c1
Assays:
[1] = Fluorescence of unbound peptide after magnetic separation; format: physicochemical; conditions: fluorescence relative to 1 mg/mL free peptide
Procedure: PBP10-containing nanosystems were obtained by non-covalent bonding including electrostatic interactions or chemisorption of thiol groups to the gold surface. Nanoparticles (MNP@NH2 or MNP@Au) were dispersed in PBS to obtain solutions of 10 mg/mL concentration. Then nanoparticles were diluted to the concentration of 1 mg/mL and were mixed with the appropriate amount (1:1 volume ratio) of PBP peptide or PBP modified by cysteine and rhodamine (1 mg/mL solutions in PBS buffer). Prepared solutions were incubated for 2 days (nucleation) and used for further investigations. In order to avoid the loss of agents during the preparation process, no further purification of nanosystems was performed. To evaluate the efficiency of peptide attachment, fluorescence of unbound PBP10 peptides in solutions after magnetic separation of nanosystems was measured.

S. aureus A1 = experiment: Killing assay (CFU counting); format: cell-based, Staphylococcus aureus; conditions: S. aureus A1, 1 h, doses 2-10 µg/mL, dose-dependent
Procedure: (§1) To assess the bactericidal activity of PBP10-derived peptides and PBP10-containing nanosystems against E. coli and S. aureus bacterial strains, a killing assay based on counting colony forming units (CFU) was performed. For this purpose, E. coli and S. aureus strains were grown to mid-log phase at 37 °C, re-suspended in PBS, brought to 10^8 CFU/ml (which corresponds to 0.5 OD at a wavelength 600 nm) and diluted 1:100 to obtain sample containing approx. 10^6 CFU/mL. Bacteria were then added to PBS containing different concentrations of PBP10, RhB-PBP10 and RhB-PBP10-Cys and their nanosystems at doses of 2, 5 and 10 µg/mL. After 1 h of incubation at 37 °C, the plates were transferred to ice and suspensions were diluted 10- to 1000-fold in PBS. Then, 10 μL aliquots were spotted on agar plates for overnight culture at 37 °C in order to determine CFUs.

E. coli RS218 = experiment: Killing assay (CFU counting); format: cell-based, Escherichia coli; conditions: E. coli RS218, 1 h, doses 2-10 µg/mL, dose-dependent
Procedure: as §1

[2] = MTT viability / metabolic activity assay; format: cell-based, human; conditions: human
Procedure: (§2) The viability and metabolic activity of cells were measured using a microculture tetrazolium test (MTT; 3-(4,5-dimethylthiazol-2-yl)-2,5-diphenyltetrazolium bromide) as described previously. HaCaT cells were seeded at a density of 5 × 10^4 cells/well in transparent 96-well plates and cultured until ~ 85% confluence; after that medium was replaced with serum-free medium and cells were serum starved for another 12 h. To determine the non-toxic concentrations, the peptides and their magnetic derivatives in concentrations ranging from 1 to 50 µg/mL were added to each well and incubated for 24 h at 37 °C under 5% CO2. The optical density at 490 nm was assessed after 2 h incubation of plates with MTT solution (5 mg/mL) and the addition of formazan salt in dimethyl sulfoxide (DMSO). The absorbance value obtained in cultures of control cells (with solvents alone) was taken as 100%. The average of all the experiments is shown as cell viability percentage in comparison to the control.

HaCaT cells [3] = experiment: IL-8 release (ELISA); format: cell-based, human; conditions: 24 h
Procedure: In order to assess release of interleukin-8 (IL-8) from stimulated keratinocytes, 5 × 10^4 HaCaT cells were treated with agents at concentrations of 2, 5 and 10 µg/mL and stimulated with 1 µg/mL LPS/LTA. The medium from LPS/LTA-treated cells was harvested after 24 h of incubation and the level of IL-8 was evaluated using an IL-8 Human ELISA Kit (Thermo Fisher Scientific).

A549 cells = experiment: Cell stiffness by atomic force microscopy (AFM) indentation; format: cell-based, human; conditions: 1 µg/mL LPS 24 h, agent 5 µg/mL
Procedure: The stiffness of cells after 24 h stimulation with 1 µg/mL LPS was measured by indentation using atomic force microscopy (Nanowizard 4 Bioscience AFM, JPK Instruments, Germany). Adenocarcinomic human alveolar basal epithelial cells (A549 ATCC® CCL-185™) were cultured in high-glucose DMEM supplemented with 10% FBS at 37 °C with 5% CO2, placed on Ø 35 mm Petri dishes and allowed to attach and spread for 24 h before simultaneous stimulation with 1 µg/mL LPS (E. coli 026:B6) and treatment with 5 µg/mL of PBP10 or PBP10-based nanosystems. Immediately before the experiment, cells were placed in a CO2-independent buffer (Thermo Fisher Scientific, USA) to prevent changes in pH of the cellular environment during analysis. Elasticity measurements were taken with AFM working in force spectroscopy mode in liquid conditions, and cantilevers (ORC8, Bruker) with a spring constant of 0.1 N/m were used. From each tested cell, up to 64 force-indentation curves were collected in a grid of 8 × 8 pixels corresponding to a scan area of 10 × 10 µm with a maximal force of 2 nN. For indentation measurements, more than 1100 force-distance curves were recorded for each group from at least ten different cells. To determine the apparent Young’s modulus of different cells, force-indentation curves were fit to the Hertz contact model.

HaCaT cells [4] = experiment: MTT viability / metabolic activity assay; format: cell-based, human; conditions: 24 h
Procedure: as §2

HaCaT cells [5] = experiment: ROS formation (DFCH-DA fluorescence); format: cell-based, human; conditions: 1 µg/mL LPS-stimulated HaCaT, 10 µg/mL agent, 24 h
Procedure: The generation of reactive oxygen species from stimulated HaCaT cells was measured using 2′,7′-dichlorofluorescein diacetate (DFCH-DA) as the fluorescent probe. For this purpose, 5 × 10^4 of HaCaT cells, cultured until ~ 85% confluence and incubated simultaneously with peptides or their magnetic derivatives at concentrations of 2, 5 and 10 µg/mL and with 1 µg/mL LPS/LTA or heat-inactivated bacteria for 24 h. Next, cells were washed twice with PBS, and DFCH-DA in PBS at the concentration of 20 µM was added. Fluorescence was measured for 90 min immediately after the addition of the dye at excitation/emission wavelengths of 488/535 nm.

HaCaT cells [6] = experiment: Nitric oxide assay (nitrite, Griess reagent); format: cell-based, human; conditions: 1 µg/mL LTA-stimulated HaCaT, 10 µg/mL agent, 24 h
Procedure: The nitric oxide assay was performed as described previously and the quantity of nitrite in the culture medium was measured as an indicator of NO production. Amounts of nitrite, a stable metabolite of NO, were measured using the Griess reagent (1% sulfanilamide and 0.1% naphthylethylenediamine dihydrochloride in 2.5% phosphoric acid). Briefly, 5 × 10^4 HaCaT cells were seeded in transparent 96-well plates and cultured until 85% confluence was reached. After that, cells were washed with PBS, and agents at final concentrations of 2, 5 and 10 µg/mL were added to each well. Simultaneously, keratinocytes were stimulated with 1 µg/mL LPS (E. coli 026:B6), 1 µg/mL LTA (from Staphylococcus aureus) or heat-inactivated suspensions of E. coli or S. aureus (~ 10^6 CFU/mL) and incubated in serum-free medium for 24 h. Next, 50 µL of cell culture medium was mixed with 50 µL of Griess reagent, incubated at room temperature for 15 min, and the absorbance at 540 nm was measured in a microplate reader. Fresh culture medium was used as a blank in every experiment.

## CCN(CC)c1ccc2c(-c3ccccc3C(=O)N[C@@H](CCC(N)=O)C(=O)N[C@@H](CCCNC(=N)N)C(=O)N[C@@H](CC(C)C)C(=O)N[C@@H](Cc3ccccc3)C(=O)N[C@@H](CCC(N)=O)C(=O)N[C@H](C(=O)N[C@@H](CCCCN)C(=O)NCC(=O)N[C@@H](CCCNC(=N)N)C(=O)N[C@@H](CCCNC(=N)N)C(=O)N[C@@H](CS)C(=O)O)C(C)C)c3ccc(=[N+](CC)CC)cc-3oc2c1 [RhB-PBP10-Cys] (RhodamineB-QRLFQVKGRRC-OH; N-terminus and C-terminus assumed)
[1]
  % of remaining peptide (unbound) in solution after magnetic separation: ≤ 5%
S. aureus A1
  decrease of bacterial viability: more than 95%
E. coli RS218
  decrease of bacterial viability: more than 95%
[2]; 10 µg/mL, 24 h, control = 100%, read-out: viability of HaCaT cells
  viability at 24 h, 10 µg/mL: 80 ± 6.6%

## Lipopolysaccharide from Escherichia coli O26:B6 [LPS]
HaCaT cells [3]; 1 µg/mL LPS-stimulated HaCaT
  IL-8 level: 504.9 ± 49.39 pg/mL
A549 cells; indentation depth 1 µm
  Young's modulus: 3.1 ± 0.08 kPa
A549 cells; indentation depth 300 nm
  Young's modulus: 4.3 ± 0.07 kPa

## QRLFQVKGRR [PBP10, QRLFQVKGRR]
HaCaT cells [4]
  IC50: > 50 µg/mL
[2]
  viability at 24 h, 10 µg/mL: 83 to 101%

## CCN(CC)c1ccc2c(-c3ccccc3C(=O)N[C@@H](CCC(N)=O)C(=O)N[C@@H](CCCNC(=N)N)C(=O)N[C@@H](CC(C)C)C(=O)N[C@@H](Cc3ccccc3)C(=O)N[C@@H](CCC(N)=O)C(=O)N[C@H](C(=O)N[C@@H](CCCCN)C(=O)NCC(=O)N[C@@H](CCCNC(=N)N)C(=O)N[C@@H](CCCNC(=N)N)C(=O)O)C(C)C)c3ccc(=[N+](CC)CC)cc-3oc2c1 [RhB-PBP10, rhodamine B-QRLFQVKGRR] (RhodamineB-QRLFQVKGRR-OH; N-terminus and C-terminus assumed)
HaCaT cells [5]
  ROS production (% of untreated stimulated control): 30.33 ± 3.31%
S. aureus A1
  decrease of bacterial viability: more than 95%
E. coli RS218
  decrease of bacterial viability: more than 95%
HaCaT cells [6]
  NO production (% of untreated stimulated control): 63.16 ± 14.01%

## lipoteichoic acid from Staphylococcus aureus [LTA]
HaCaT cells [3]; 1 µg/mL LTA-stimulated HaCaT
  IL-8 level: 749.2 ± 55.81 pg/mL

Reference: article PMC6359803, “Inhibition of inflammatory response in human keratinocytes by magnetic nanoparticles functionalized with PBP10 peptide derived from the PIP2-binding site of human plasma gelsolin” (Journal of Nanobiotechnology, 2019)
